Target: CCR5 chemokine receptor (Homo sapiens, UniProt P51681)
Test: Inhibition Data (IC50; no method described)
Conditions: assay not described, read-out: Activity (*) (IC50 class)

Chain of CCR5 chemokine receptor (P51681 whole entry): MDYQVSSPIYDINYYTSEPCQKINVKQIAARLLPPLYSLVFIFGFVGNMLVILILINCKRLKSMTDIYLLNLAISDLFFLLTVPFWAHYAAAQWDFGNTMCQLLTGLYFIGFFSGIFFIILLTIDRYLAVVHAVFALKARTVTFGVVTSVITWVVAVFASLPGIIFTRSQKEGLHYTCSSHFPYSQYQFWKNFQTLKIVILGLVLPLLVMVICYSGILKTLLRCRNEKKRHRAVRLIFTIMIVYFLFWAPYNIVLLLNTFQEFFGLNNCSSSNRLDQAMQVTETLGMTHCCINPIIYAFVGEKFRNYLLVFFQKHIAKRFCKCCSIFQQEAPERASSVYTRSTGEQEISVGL

IC50: < 1000 nM
SMILES: CN(C[C@@](C)(CCN1CC[C@H]2CN(C(N)=O)C[C@H]2C1)c1ccccc1)S(=O)(=O)c1ccccc1 [Example 76]

Source: patent US9062057B2, “CCR5 antagonists for treating HIV” (Purdue Research Foundation, priority 2010, dated 2015)
